Experimental data taken from US9796711B2, “Substituted pyrazolo[3,4-b]pyridin-6-carboxylic acids and method of use” (AbbVie S.àr.l., priority 2015, dated 2017).

Columns and labels:
[1] = target: T1, ΔF508-CFTR (Homo sapiens, UniProt P13569, DEL508-508); experiment: CFTR cell surface levels using HRP-tagged ΔF508-CFTR expressing CFBE cells, in the presence of a co-corrector; assay type: cell-based; details: HRP-tagged ΔF508-CFTR expressing CFBE cells, in the presence of 3 μM co-corrector; for EC50: read-out: EC50
T1 construct: host or cells: CFBE41o-, doxycycline-inducible
Procedure, shortened: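 Cells were seeded with 0.5 μg/mL doxycycline and held 68 h at 37 °C. Test compounds plus 3 μM co-corrector (final 0.1% DMSO) were then added for 20 h at 33 °C. Washed cells received HRP substrate, and luminescence was normalized between DMSO and 3 μM co-corrector controls.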

[2] = target: T1, ΔF508-CFTR; experiment: CFTR cell surface levels using HRP-tagged ΔF508-CFTR expressing CFBE cells, intrinsic corrector capacity; assay type: cell-based; details: for EC50: read-out: EC50
Description: Measuring CFTR Cell Surface Levels Using HRP-Tagged AF508-CFTR Expressing CFBE Cells
The HRP-tagged AF508-CFTR cell assay measures the expression of CFTR-ΔF508 at the plasma membrane. CFTR-ΔF508 has a folding defect leading to absence of protein at the plasma membrane. This assay is used to evaluate the capacity of compounds to increase the expression of CFTR-ΔF508 at the plasma membrane. The CFTR-ΔF508 is tagged with HRP (horse radish peroxidase enzyme) within the ECL4 (Extracellular loop 4) of CFTR (Phuan, P.-W. et al. Synergy-based small-molecule screen using a human lung epithelial cell line yields AF508-CFTR correctors that augment VX-809 maximal efficacy. Mol. Pharmacol. 86, 42-51 (2014)). When HRP-tagged AF508-CFTR is present at the plasma membrane, the HRP enzyme activity can be measured. The amount of CFTR-ΔF508 that can be rescued to the plasma membrane is correlated with the amount of functional enzyme that can be measured.
There are several ways to measure the capacity of compounds to rescue CFTR-ΔF508 to the plasma membrane; either compounds are evaluated on their own and the impact on plasma membrane levels is measured or compounds are evaluated in combination with a co-corrector, i.e. a compound that rescues CFTR-ΔF508 to the plasma membrane but rescue can be enhanced by addition of compounds due to a complementary mode of action.
Activity of Compounds for their Intrinsic Corrector Capacity:
For this purpose doxycycline-inducible AF508-CFTR-HRP expressing CFBE4lo-cells (obtained from Gergely Lukacs, McGill University) were maintained in MEM (Gibco; 31095) supplemented with 10% fetal bovine serum (Hyclone; SV30160.03) under puromycin (3 μg/mL) and G418 selection (0.2 mg/mL). For compound testing, cells were seeded at 4000 cells/well in white 384-well plates (Greiner; 781080) in 50 μL medium containing 0.5 μg/mL doxycycline and incubated for 68 hours at 37° C., 5% CO2. On day four, 10 μL test compounds diluted in PBS were added to the plates at a final DMSO concentration of 0.1%. All compound plates contained negative controls (DMSO) and positive controls (3 μM corrector, 3-[(2R,4R)-4-({[1-(2,2-difluoro-1,3-benzodioxol-5-yl)cyclopropyl]carbonyl}amino)-7-methoxy-3,4-dihydro-2H-chromen-2-yl]benzoic acid). Cell plates were incubated at 33° C., 5% CO2 for 20 hours. On day five, the cells were washed five times with phosphate-buffered saline, and HRP activity was assayed by the addition of 50 μL/well of HRP substrate (SuperSignal™ West Pico Chemiluminescent Substrate, Thermo Scientific; 34080). After incubation for 15 minutes in the dark, chemiluminescence was measured using a plate reader (EnVision®, Perkin Elmer). Raw data were normalized to percentage activity values using the equation: 100×(Sample−Negative control)/(Positive control−Negative Control).

[3] = HRP-tagged ΔF508-CFTR expressing CFBE cells, intrinsic corrector capacity (no co-corrector), 33° C., 20 hours
[4] = HRP-tagged ΔF508-CFTR CFBE41o- cells, compounds alone (intrinsic corrector capacity), 20 hours at 33° C., positive control 3 μM corrector
[5] = HRP-tagged ΔF508-CFTR CFBE41o- cells, compounds alone (intrinsic corrector capacity), 20 hours at 33° C.

T1 sequence (P13569 with tags, fused parts or gaps DEL508-508): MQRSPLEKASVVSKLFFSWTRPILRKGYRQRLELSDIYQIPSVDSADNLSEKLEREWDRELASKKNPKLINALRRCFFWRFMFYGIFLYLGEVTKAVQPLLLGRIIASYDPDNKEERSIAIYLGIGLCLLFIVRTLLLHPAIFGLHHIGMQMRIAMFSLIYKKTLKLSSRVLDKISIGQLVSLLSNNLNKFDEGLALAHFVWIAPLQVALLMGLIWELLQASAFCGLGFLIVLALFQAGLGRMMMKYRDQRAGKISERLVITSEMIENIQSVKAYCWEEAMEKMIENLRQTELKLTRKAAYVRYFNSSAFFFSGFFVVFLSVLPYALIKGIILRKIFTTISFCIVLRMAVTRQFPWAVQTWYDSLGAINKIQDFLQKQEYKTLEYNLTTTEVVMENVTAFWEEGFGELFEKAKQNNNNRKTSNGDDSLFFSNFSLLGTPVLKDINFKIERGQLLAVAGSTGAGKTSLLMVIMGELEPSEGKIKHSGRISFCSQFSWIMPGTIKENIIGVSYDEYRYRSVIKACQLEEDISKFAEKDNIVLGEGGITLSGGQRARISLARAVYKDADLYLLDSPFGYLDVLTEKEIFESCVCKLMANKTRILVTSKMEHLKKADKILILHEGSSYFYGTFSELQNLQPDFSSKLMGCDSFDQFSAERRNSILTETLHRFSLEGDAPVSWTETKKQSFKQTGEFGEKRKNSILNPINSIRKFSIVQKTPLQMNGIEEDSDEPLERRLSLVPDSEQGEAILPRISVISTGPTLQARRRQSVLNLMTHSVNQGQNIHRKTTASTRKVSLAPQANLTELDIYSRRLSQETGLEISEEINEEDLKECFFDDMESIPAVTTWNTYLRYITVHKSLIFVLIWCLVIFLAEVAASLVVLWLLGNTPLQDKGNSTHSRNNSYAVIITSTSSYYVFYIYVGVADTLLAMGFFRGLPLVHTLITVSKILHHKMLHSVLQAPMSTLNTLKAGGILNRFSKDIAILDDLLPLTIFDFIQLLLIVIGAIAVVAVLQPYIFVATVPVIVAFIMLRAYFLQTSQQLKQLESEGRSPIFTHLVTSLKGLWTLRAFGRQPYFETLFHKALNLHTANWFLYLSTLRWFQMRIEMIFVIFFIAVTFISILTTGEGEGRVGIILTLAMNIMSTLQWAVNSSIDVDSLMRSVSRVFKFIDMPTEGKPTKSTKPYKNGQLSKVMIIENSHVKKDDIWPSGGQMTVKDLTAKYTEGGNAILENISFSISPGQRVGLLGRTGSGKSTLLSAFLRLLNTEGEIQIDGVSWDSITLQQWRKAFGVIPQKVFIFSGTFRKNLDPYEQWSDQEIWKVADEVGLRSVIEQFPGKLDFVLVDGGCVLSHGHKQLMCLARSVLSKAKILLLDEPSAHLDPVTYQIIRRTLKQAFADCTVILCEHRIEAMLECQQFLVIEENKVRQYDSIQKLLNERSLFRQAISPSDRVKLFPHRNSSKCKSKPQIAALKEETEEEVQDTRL

| SMILES | % Activation [1] [%] | EC50 [1] [µM] | % Activation [2, 3] [%] | EC50 [2, 3] [µM] | % Activation [2, 4] [%] | EC50 [2, 5] [µM] |
| --- | --- | --- | --- | --- | --- | --- |
| CC(C)Oc1nn(C2CCCCC2)c2nc(C(=O)O)cc(-c3ccc(N4CCN(C)CC4)cc3)c12 [compound 883, 1-cyclohexyl-4-[4-(4-methylpiperazin-1-yl)phenyl]-3-[(propan-2-yl)oxy]-1H-pyrazolo[3,4-b]pyridine-6-carboxylic acid] | 380.9 | 0.238 | 160.6 | 0.33 | – | – |
| CC(=O)NC1CCN(c2ccc(-c3cc(C(=O)O)nc4c3c(C)nn4-c3ccccc3)cc2)C1 (stereo not drawn) [compound 156, 4-[4-(3-acetamidopyrrolidin-1-yl)phenyl]-3-methyl-1-phenyl-1H-pyrazolo[3,4-b]pyridine-6-carboxylic acid] | 411.55 | 3.16 | – | – | 175.5 | 3.34 |
| COCC1CCN(c2cc(C(=O)O)nc3c2c(C(C)C)nn3CC2CCC2)CC1 [compound 547, 1-(cyclobutylmethyl)-4-[4-(methoxymethyl)piperidin-1-yl]-3-(propan-2-yl)-1H-pyrazolo[3,4-b]pyridine-6-carboxylic acid] | 318.7 | 1.88 | 120.7 | 3.33 | – | – |
| Cc1nn(-c2ccccc2)c2nc(C(=O)O)cc(-c3ccc(N4CCOC(C)(C)C4)cc3)c12 [compound 119, 4-[4-(2,2-dimethylmorpholin-4-yl)phenyl]-3-methyl-1-phenyl-1H-pyrazolo[3,4-b]pyridine-6-carboxylic acid] | 413.2 | 0.624 | – | – | 207.25 | 0.915 |
| CC(C)c1nn(C2CCCCC2)c2nc(C(=O)O)cc(-c3ccc(N(C)C4CCOC4)nc3)c12 (stereo not drawn) [compound 276, 1-cyclohexyl-4-{6-[methyl(oxolan-3-yl)amino]pyridin-3-yl}-3-(propan-2-yl)-1H-pyrazolo[3,4-b]pyridine-6-carboxylic acid] | 407.8 | 0.372 | – | – | 206.93 | 0.504 |
| Cc1nn(-c2ccccc2)c2nc(C(=O)O)cc(N3CCC(C(=O)N(C)C)CC3)c12 [compound 319, 4-[4-(dimethylcarbamoyl)piperidin-1-yl]-3-methyl-1-phenyl-1H-pyrazolo[3,4-b]pyridine-6-carboxylic acid] | 270.75 | 4.17 | – | – | 80.905 | 2.51 |
| COc1ccc(-c2cc(C(=O)O)nc3c2c(C)nn3C2CCCC2)cc1 [compound 3, 1-cyclopentyl-4-(4-methoxyphenyl)-3-methyl-1H-pyrazolo[3,4-b]pyridine-6-carboxylic acid] | – | – | – | – | 46.83 | 3.34 |
| COc1cccc(-n2nc(C)c3c(-c4ccc(N5CCOCC5)cc4)cc(C(=O)O)nc32)c1 [compound 21, 1-(3-methoxyphenyl)-3-methyl-4-[4-(morpholin-4-yl)phenyl]-1H-pyrazolo[3,4-b]pyridine-6-carboxylic acid] | – | – | – | – | 103.72 | 1.06 |
| Cc1nn(-c2cccc(Cl)c2)c2nc(C(=O)O)cc(-c3ccc(N4CCOCC4)cc3)c12 [compound 11, 1-(3-chlorophenyl)-3-methyl-4-[4-(morpholin-4-yl)phenyl]-1H-pyrazolo[3,4-b]pyridine-6-carboxylic acid] | – | – | – | – | 134.3 | 1.38 |
| Cc1nn(-c2ccnc(F)c2)c2nc(C(=O)O)cc(-c3ccc(N4CCOCC4)cc3)c12 [compound 57, 1-(2-fluoropyridin-4-yl)-3-methyl-4-[4-(morpholin-4-yl)phenyl]-1H-pyrazolo[3,4-b]pyridine-6-carboxylic acid] | – | – | – | – | 68.57 | 3.34 |
| Cc1nn(-c2cccc(S(N)(=O)=O)c2)c2nc(C(=O)O)cc(-c3ccc(N4CCOCC4)cc3)c12 [compound 45, 3-methyl-4-[4-(morpholin-4-yl)phenyl]-1-(3-sulfamoylphenyl)-1H-pyrazolo[3,4-b]pyridine-6-carboxylic acid] | – | – | – | – | 5.851 | > 10 |
| COc1cc(-n2nc(C)c3c(-c4ccc(N5CCOCC5)cc4)cc(C(=O)O)nc32)ccn1 [compound 51, 1-(2-methoxypyridin-4-yl)-3-methyl-4-[4-(morpholin-4-yl)phenyl]-1H-pyrazolo[3,4-b]pyridine-6-carboxylic acid] | – | – | – | – | 41.22 | 1.18 |
| CCOC(=O)c1nn(-c2ccccc2)c2nc(C(=O)O)cc(-c3ccc(N4CCOCC4)cc3)c12 [compound 16, 3-(ethoxycarbonyl)-4-[4-(morpholin-4-yl)phenyl]-1-phenyl-1H-pyrazolo[3,4-b]pyridine-6-carboxylic acid] | – | – | – | – | 92.93 | 3.34 |
| Cc1nn(-c2ccccc2)c2nc(C(=O)O)cc(-c3ccc(N4CCCCC4)cc3)c12 [compound 8, 3-methyl-1-phenyl-4-[4-(piperidin-1-yl)phenyl]-1H-pyrazolo[3,4-b]pyridine-6-carboxylic acid] | – | – | – | – | 91.055 | 0.754 |
| Cc1nn(-c2ccccc2)c2nc(C(=O)O)cc(-c3ccc(N4CCN(C)CC4)cc3)c12 [compound 9, 3-methyl-4-[4-(4-methylpiperazin-1-yl)phenyl]-1-phenyl-1H-pyrazolo[3,4-b]pyridine-6-carboxylic acid] | – | – | – | – | 31.76 | 3.34 |
| Cc1nn(C2CCN(C)CC2)c2nc(C(=O)O)cc(-c3ccc(N4CCOCC4)cc3)c12 [compound 39, 3-methyl-1-(1-methylpiperidin-4-yl)-4-[4-(morpholin-4-yl)phenyl]-1H-pyrazolo[3,4-b]pyridine-6-carboxylic acid] | – | – | – | – | −2.469 | > 10 |
| CC(C)c1nn(-c2cccc(C#N)c2)c2nc(C(=O)O)cc(-c3ccc(N4CCOCC4)cc3)c12 [compound 49, 1-(3-cyanophenyl)-4-[4-(morpholin-4-yl)phenyl]-3-(propan-2-yl)-1H-pyrazolo[3,4-b]pyridine-6-carboxylic acid] | – | – | – | – | 107 | 1.11 |
| Cc1nn(-c2cc(F)cc(F)c2)c2nc(C(=O)O)cc(-c3ccc(N4CCOCC4)cc3)c12 [compound 10, 1-(3,5-difluorophenyl)-3-methyl-4-[4-(morpholin-4-yl)phenyl]-1H-pyrazolo[3,4-b]pyridine-6-carboxylic acid] | – | – | – | – | 116.55 | 0.867 |
| Cc1cc(C)cc(-n2nc(C)c3c(-c4ccc(N5CCOCC5)cc4)cc(C(=O)O)nc32)c1 [compound 30, 1-(3,5-dimethylphenyl)-3-methyl-4-[4-(morpholin-4-yl)phenyl]-1H-pyrazolo[3,4-b]pyridine-6-carboxylic acid] | – | – | – | – | 119.1 | 1.21 |
| Cc1nn(-c2ccccc2)c2nc(C(=O)O)cc(-c3ccc(N4CCCC4)cc3)c12 [compound 25, 3-methyl-1-phenyl-4-[4-(pyrrolidin-1-yl)phenyl]-1H-pyrazolo[3,4-b]pyridine-6-carboxylic acid] | – | – | – | – | 93.1 | 1.5 |
| Cc1nn(-c2cccc(Br)c2)c2nc(C(=O)O)cc(-c3ccc(N4CCOCC4)cc3)c12 [compound 18, 1-(3-bromophenyl)-3-methyl-4-[4-(morpholin-4-yl)phenyl]-1H-pyrazolo[3,4-b]pyridine-6-carboxylic acid] | – | – | – | – | 126.8 | 0.783 |
